From PubChem BioAssay (NCI)
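Test compounds were applied to cells in 96-well plates for 48 hours at 5 doses. Abbreviation: GI50, concentration required for 50% inhibition of growth. TGI is the concentration that stops growth completely.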

What was measured:
Assay in all cases: growth of human tumour cells (NCI), 48 h
BT-549 breast = system: BT-549 breast
HCT-116 colon = system: HCT-116 colon
NCI-H226 lung = system: NCI-H226 lung
NCI/ADR-RES ovarian = system: NCI/ADR-RES ovarian
RXF 393 renal = system: RXF 393 renal
MDA-MB-435 = system: MDA-MB-435
SF-268 CNS = system: SF-268 CNS
SN12C renal = system: SN12C renal
KM12 colon = system: KM12 colon
SW-620 colon = system: SW-620 colon
HOP-92 NSCLC = system: HOP-92 NSCLC
NCI-H23 lung = system: NCI-H23 lung
OVCAR-8 ovarian = system: OVCAR-8 ovarian
A549 NSCLC = system: A549 NSCLC
HL-60(TB) leukemia = system: HL-60(TB) leukemia
IGROV1 ovarian = system: IGROV1 ovarian
COLO 205 colon = system: COLO 205 colon
U251 CNS = system: U251 CNS
DU-145 prostate = system: DU-145 prostate
HCT-15 colon = system: HCT-15 colon
HS 578T breast = system: HS 578T breast
SNB-75 CNS = system: SNB-75 CNS
SK-MEL-2 melanoma = system: SK-MEL-2 melanoma
RPMI-8226 leukemia = system: RPMI-8226 leukemia
NCI-H460 lung = system: NCI-H460 lung
OVCAR-5 ovarian = system: OVCAR-5 ovarian
MDA-MB-231 breast = system: MDA-MB-231 breast
SNB-19 CNS = system: SNB-19 CNS
CCRF-CEM leukemia = system: CCRF-CEM leukemia
MCF7 breast = system: MCF7 breast
NCI-H522 lung = system: NCI-H522 lung
OVCAR-4 ovarian = system: OVCAR-4 ovarian
K-562 leukemia = system: K-562 leukemia
PC-3 prostate = system: PC-3 prostate
TK-10 renal = system: TK-10 renal
UACC-62 melanoma = system: UACC-62 melanoma
A498 renal = system: A498 renal
LOX IMVI melanoma = system: LOX IMVI melanoma
M14 melanoma = system: M14 melanoma
UACC-257 melanoma = system: UACC-257 melanoma
SF-539 CNS = system: SF-539 CNS
EKVX NSCLC = system: EKVX NSCLC
HCC-2998 colon = system: HCC-2998 colon
ACHN renal = system: ACHN renal
OVCAR-3 ovarian = system: OVCAR-3 ovarian
HOP-62 NSCLC = system: HOP-62 NSCLC
786-0 renal = system: 786-0 renal
SK-OV-3 ovarian = system: SK-OV-3 ovarian
SK-MEL-28 melanoma = system: SK-MEL-28 melanoma
HT29 colon = system: HT29 colon
MOLT-4 leukemia = system: MOLT-4 leukemia
CAKI-1 renal = system: CAKI-1 renal
SK-MEL-5 melanoma = system: SK-MEL-5 melanoma
SR leukemia = system: SR leukemia
T-47D breast = system: T-47D breast
UO-31 renal = system: UO-31 renal
SF-295 CNS = system: SF-295 CNS

O=C(/C=C/C12c3ccccc3C(c3ccccc31)C1C(=O)N(c3ccccc3)C(=O)C12)c1ccccc1 (centres undefined)
GI50 (BT-549 breast): 1.37 µM
TGI (BT-549 breast): 3.02 µM
GI50 (HCT-116 colon): 0.695 µM
TGI (HCT-116 colon): 2.07 µM
GI50 (NCI-H226 lung): 2.34 µM
TGI (NCI-H226 lung): 8.63 µM
GI50 (NCI/ADR-RES ovarian): 2.23 µM
TGI (NCI/ADR-RES ovarian): > 100 µM
GI50 (RXF 393 renal): 1.21 µM
TGI (RXF 393 renal): 2.82 µM
GI50 (MDA-MB-435): 2.56 µM
TGI (MDA-MB-435): > 100 µM
GI50 (SF-268 CNS): 8.56 µM
TGI (SF-268 CNS): > 100 µM
GI50 (SN12C renal): 2.53 µM
TGI (SN12C renal): > 100 µM
GI50 (KM12 colon): 2.64 µM
TGI (KM12 colon): > 100 µM
GI50 (SW-620 colon): 2.74 µM
TGI (SW-620 colon): > 100 µM
GI50 (HOP-92 NSCLC): 1.26 µM
TGI (HOP-92 NSCLC): 3.75 µM
GI50 (NCI-H23 lung): 2.69 µM
TGI (NCI-H23 lung): 18.1 µM
GI50 (OVCAR-8 ovarian): 1.79 µM
TGI (OVCAR-8 ovarian): > 100 µM
GI50 (A549 NSCLC): 2.58 µM
TGI (A549 NSCLC): > 100 µM
GI50 (HL-60(TB) leukemia): 1.02 µM
TGI (HL-60(TB) leukemia): 8.66 µM
GI50 (IGROV1 ovarian): 2.06 µM
TGI (IGROV1 ovarian): 6.05 µM
GI50 (COLO 205 colon): 2.11 µM
TGI (COLO 205 colon): 4.85 µM
GI50 (U251 CNS): 2.48 µM
TGI (U251 CNS): 9.44 µM
GI50 (DU-145 prostate): 2.14 µM
TGI (DU-145 prostate): 6.03 µM
GI50 (HCT-15 colon): 1.6 µM
TGI (HCT-15 colon): 10.6 µM
GI50 (HS 578T breast): 2.32 µM
TGI (HS 578T breast): > 100 µM
GI50 (SNB-75 CNS): 2.39 µM
TGI (SNB-75 CNS): > 100 µM
GI50 (SK-MEL-2 melanoma): 2.13 µM
TGI (SK-MEL-2 melanoma): 7.85 µM
GI50 (RPMI-8226 leukemia): 1.55 µM
TGI (RPMI-8226 leukemia): 7.69 µM
GI50 (NCI-H460 lung): 1.92 µM
TGI (NCI-H460 lung): 4.69 µM
GI50 (OVCAR-5 ovarian): 1.91 µM
TGI (OVCAR-5 ovarian): 5.02 µM
GI50 (MDA-MB-231 breast): 2.23 µM
TGI (MDA-MB-231 breast): 6.77 µM
GI50 (SNB-19 CNS): 3.08 µM
TGI (SNB-19 CNS): > 100 µM
GI50 (CCRF-CEM leukemia): 1.45 µM
TGI (CCRF-CEM leukemia): > 100 µM
GI50 (MCF7 breast): 1.48 µM
TGI (MCF7 breast): > 100 µM
GI50 (NCI-H522 lung): 1.59 µM
TGI (NCI-H522 lung): 4.45 µM
GI50 (OVCAR-4 ovarian): 2.94 µM
TGI (OVCAR-4 ovarian): > 100 µM
GI50 (K-562 leukemia): 1.39 µM
TGI (K-562 leukemia): > 100 µM
GI50 (PC-3 prostate): 2.07 µM
TGI (PC-3 prostate): > 100 µM
GI50 (TK-10 renal): 6.22 µM
TGI (TK-10 renal): > 100 µM
GI50 (UACC-62 melanoma): 1.66 µM
TGI (UACC-62 melanoma): 4.94 µM
GI50 (A498 renal): 0.763 µM
TGI (A498 renal): 2.2 µM
GI50 (LOX IMVI melanoma): 1.66 µM
TGI (LOX IMVI melanoma): 3.51 µM
GI50 (M14 melanoma): 2.51 µM
TGI (M14 melanoma): 10.1 µM
GI50 (UACC-257 melanoma): 2.3 µM
TGI (UACC-257 melanoma): 39.2 µM
GI50 (SF-539 CNS): 2.09 µM
TGI (SF-539 CNS): 5.14 µM
GI50 (EKVX NSCLC): 2.09 µM
TGI (EKVX NSCLC): > 100 µM
GI50 (HCC-2998 colon): 1.75 µM
TGI (HCC-2998 colon): 3.62 µM
GI50 (ACHN renal): 1.63 µM
TGI (ACHN renal): 4.08 µM
GI50 (OVCAR-3 ovarian): 2.22 µM
TGI (OVCAR-3 ovarian): 7.09 µM
GI50 (HOP-62 NSCLC): 3.23 µM
TGI (HOP-62 NSCLC): 14.6 µM
GI50 (786-0 renal): 2.89 µM
TGI (786-0 renal): > 100 µM
GI50 (SK-OV-3 ovarian): 28.3 µM
TGI (SK-OV-3 ovarian): > 100 µM
GI50 (SK-MEL-28 melanoma): 2.48 µM
TGI (SK-MEL-28 melanoma): 7.09 µM
GI50 (HT29 colon): 2.69 µM
TGI (HT29 colon): > 100 µM
GI50 (MOLT-4 leukemia): 1.23 µM
TGI (MOLT-4 leukemia): > 100 µM
GI50 (CAKI-1 renal): 1.5 µM
TGI (CAKI-1 renal): > 100 µM
GI50 (SK-MEL-5 melanoma): 2.29 µM
TGI (SK-MEL-5 melanoma): 6.21 µM
GI50 (SR leukemia): 2.02 µM
TGI (SR leukemia): > 100 µM

C/C(=N\O)c1cccc(Nc2cc(-n3ccnn3)c3ccccc3n2)c1
GI50 (BT-549 breast): 18.9 µM
TGI (BT-549 breast): 53.9 µM
GI50 (HCT-116 colon): 14.1 µM
TGI (HCT-116 colon): 27.1 µM
GI50 (NCI-H226 lung): 0.388 µM
TGI (NCI-H226 lung): 9.35 µM
GI50 (NCI/ADR-RES ovarian): 20.8 µM
TGI (NCI/ADR-RES ovarian): > 100 µM
GI50 (RXF 393 renal): 13.6 µM
TGI (RXF 393 renal): 39.8 µM
GI50 (MDA-MB-435): 15.4 µM
TGI (MDA-MB-435): 34.2 µM
GI50 (SF-268 CNS): > 100 µM
TGI (SF-268 CNS): > 100 µM
GI50 (SN12C renal): 15.4 µM
TGI (SN12C renal): 34 µM
GI50 (KM12 colon): 15.1 µM
TGI (KM12 colon): 33.3 µM
GI50 (SW-620 colon): 21.1 µM
TGI (SW-620 colon): 50.6 µM
GI50 (HOP-92 NSCLC): 13.9 µM
TGI (HOP-92 NSCLC): 38.2 µM
GI50 (NCI-H23 lung): 21.3 µM
TGI (NCI-H23 lung): 48.6 µM
GI50 (OVCAR-8 ovarian): 17.5 µM
TGI (OVCAR-8 ovarian): 41 µM
GI50 (A549 NSCLC): 16.9 µM
TGI (A549 NSCLC): 43.2 µM
GI50 (IGROV1 ovarian): 12.6 µM
TGI (IGROV1 ovarian): 27.7 µM
GI50 (COLO 205 colon): 22.2 µM
TGI (COLO 205 colon): 59 µM
GI50 (U251 CNS): 19.9 µM
TGI (U251 CNS): 62.2 µM
GI50 (DU-145 prostate): 17.5 µM
TGI (DU-145 prostate): 37.2 µM
GI50 (HCT-15 colon): 13.5 µM
TGI (HCT-15 colon): 27.4 µM
GI50 (HS 578T breast): 16.4 µM
TGI (HS 578T breast): 87.8 µM
GI50 (SK-MEL-2 melanoma): 15.3 µM
TGI (SK-MEL-2 melanoma): 29.5 µM
GI50 (RPMI-8226 leukemia): 12.5 µM
TGI (RPMI-8226 leukemia): 32 µM
GI50 (NCI-H460 lung): 48.9 µM
TGI (NCI-H460 lung): > 100 µM
GI50 (OVCAR-5 ovarian): 24.4 µM
TGI (OVCAR-5 ovarian): > 100 µM
GI50 (MDA-MB-231 breast): 10.2 µM
TGI (MDA-MB-231 breast): 25.9 µM
GI50 (SNB-19 CNS): 45.6 µM
TGI (SNB-19 CNS): > 100 µM
GI50 (CCRF-CEM leukemia): 11.7 µM
TGI (CCRF-CEM leukemia): 31.3 µM
GI50 (T-47D breast): 14.9 µM
TGI (T-47D breast): 64.9 µM
GI50 (MCF7 breast): > 100 µM
TGI (MCF7 breast): > 100 µM
GI50 (NCI-H522 lung): 13.2 µM
TGI (NCI-H522 lung): 28.9 µM
GI50 (OVCAR-4 ovarian): 0.25 µM
TGI (OVCAR-4 ovarian): 27.8 µM
GI50 (K-562 leukemia): 14.9 µM
TGI (K-562 leukemia): 36.5 µM
GI50 (PC-3 prostate): 15.6 µM
TGI (PC-3 prostate): 38 µM
GI50 (TK-10 renal): 16.9 µM
TGI (TK-10 renal): 46.3 µM
GI50 (UACC-62 melanoma): 12.8 µM
TGI (UACC-62 melanoma): 25.4 µM
GI50 (A498 renal): 15.2 µM
TGI (A498 renal): 38.3 µM
GI50 (LOX IMVI melanoma): 15.4 µM
TGI (LOX IMVI melanoma): 30.4 µM
GI50 (UO-31 renal): 16.2 µM
TGI (UO-31 renal): 37.5 µM
GI50 (UACC-257 melanoma): 12.9 µM
TGI (UACC-257 melanoma): 27.9 µM
GI50 (SF-295 CNS): 18.5 µM
TGI (SF-295 CNS): 47.8 µM
GI50 (SF-539 CNS): 19 µM
TGI (SF-539 CNS): 44 µM
GI50 (EKVX NSCLC): 19 µM
TGI (EKVX NSCLC): 76.1 µM
GI50 (HCC-2998 colon): 20.5 µM
TGI (HCC-2998 colon): 56.5 µM
GI50 (ACHN renal): 15 µM
TGI (ACHN renal): 34 µM
GI50 (OVCAR-3 ovarian): 20.2 µM
TGI (OVCAR-3 ovarian): 55.8 µM
GI50 (HOP-62 NSCLC): 15.2 µM
TGI (HOP-62 NSCLC): 30.7 µM
GI50 (786-0 renal): 18.3 µM
TGI (786-0 renal): 51.5 µM
GI50 (SK-OV-3 ovarian): 30.6 µM
TGI (SK-OV-3 ovarian): > 100 µM
GI50 (SK-MEL-28 melanoma): 0.444 µM
TGI (SK-MEL-28 melanoma): 30.2 µM
GI50 (HT29 colon): 2.17 µM
TGI (HT29 colon): 82.5 µM
GI50 (MOLT-4 leukemia): 11.6 µM
TGI (MOLT-4 leukemia): 28.2 µM
GI50 (CAKI-1 renal): 21.3 µM
TGI (CAKI-1 renal): 70.6 µM
GI50 (SK-MEL-5 melanoma): 13.4 µM
TGI (SK-MEL-5 melanoma): 26.2 µM
